Laboratory results published in ChEMBL document CHEMBL1201862, “PubChem BioAssay data set” (2004).
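48-hour exposure; five concentrations; linearly interpolated endpoints. GI50 marks 50% less growth.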 Active and inactive are the calls of the source. Rule as the data show it: active = GI50 up to about 1.1 µM and inactive = higher.

Key:
Assay in all cases: inhibition of tumour cell growth, NCI panel, 48 h
[1] = test system: M19-MEL
[2] = test system: SNB-19
[3] = test system: LXFL 529
[4] = test system: HOP-18
[5] = test system: M14
[6] = test system: DMS-114
[7] = test system: DMS-273
[8] = test system: SF-268
[9] = test system: SNB-78
[10] = test system: XF498
[11] = test system: TK-10
[12] = test system: HT-29
[13] = test system: A498
[14] = test system: SR
[15] = test system: HOP-62

Measured: GI50

Cc1ccc(NC(=O)OCC(COc2ccc(Cl)cc2)OC(=O)Nc2ccc(C)cc2)cc1 (stereo not given)
inactive: [1] 22.4 µM | [2] 19.6 µM | [3] 23.4 µM | [4] > 100 µM | [5] 17.1 µM | [6] 17.3 µM | [7] 15.8 µM | [8] 22.5 µM | [9] 23.2 µM | [10] 26.4 µM | [11] 12.4 µM | [12] 15.2 µM | [13] 13.2 µM | [14] > 100 µM | [15] 26.6 µM
